Legend:
Format in all cases: biochemical
Conditions in all cases: 15 nM tritium labelled cAMP, 1 h at room temperature
PDE1A = PDE1A (Homo sapiens, UniProt P54750); assay: PDE1 inhibition assay (SPA, tritium labelled cAMP), PDE1A
Procedure: (§1) PDE1A, PDE1B and PDE1C assays were performed as follows: the assays was performed in 60 μL samples containing a fixed amount of the PDE1 enzym1 (sufficient to convert 20-25% of the cyclic nucleotide substrate), a buffer (50 mM HEPES pH 7.6; 10 mM MgCl2; 0.02% Tween20), 0.1 mg/ml BSA, 15 nM tritium labelled cAMP and varying amounts of inhibitors. Reactions were initiated by addition of the cyclic nucleotide substrate, and reactions were allowed to proceed for 1 h at room temperature before being terminated through mixing with 20 μL (0.2 mg) yttrium silicate SPA beads (PerkinElmer). The beads were allowed to settle for 1 h in the dark before the plates were counted in a Wallac 1450 Microbeta counter. The measured signals were converted to activity relative to an uninhibited control (100%) and IC50 values were calculated using XlFit (model 205, IDBS).

PDE1B = PDE1B (Homo sapiens, UniProt Q01064); assay: PDE1 inhibition assay (SPA, tritium labelled cAMP), PDE1B
PDE1B, sequence (Q01064 whole entry): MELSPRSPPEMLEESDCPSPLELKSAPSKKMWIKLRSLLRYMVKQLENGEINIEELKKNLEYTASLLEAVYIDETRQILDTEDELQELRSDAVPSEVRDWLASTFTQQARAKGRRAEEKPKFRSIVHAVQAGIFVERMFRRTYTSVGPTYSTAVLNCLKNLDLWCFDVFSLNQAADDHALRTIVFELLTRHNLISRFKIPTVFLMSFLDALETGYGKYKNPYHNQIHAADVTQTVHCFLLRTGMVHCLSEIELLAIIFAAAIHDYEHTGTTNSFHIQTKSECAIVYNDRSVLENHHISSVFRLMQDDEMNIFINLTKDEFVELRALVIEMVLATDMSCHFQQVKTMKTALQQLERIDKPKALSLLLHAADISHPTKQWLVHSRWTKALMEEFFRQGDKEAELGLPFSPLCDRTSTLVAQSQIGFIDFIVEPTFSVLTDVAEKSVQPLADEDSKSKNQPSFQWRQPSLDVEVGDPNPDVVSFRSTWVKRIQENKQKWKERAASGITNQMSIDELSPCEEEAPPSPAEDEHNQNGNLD
Procedure: as §1

PDE1C = PDE1C (Homo sapiens, UniProt Q14123); assay: PDE1 inhibition assay (SPA, tritium labelled cAMP), PDE1C
PDE1C, sequence (Q14123 whole entry): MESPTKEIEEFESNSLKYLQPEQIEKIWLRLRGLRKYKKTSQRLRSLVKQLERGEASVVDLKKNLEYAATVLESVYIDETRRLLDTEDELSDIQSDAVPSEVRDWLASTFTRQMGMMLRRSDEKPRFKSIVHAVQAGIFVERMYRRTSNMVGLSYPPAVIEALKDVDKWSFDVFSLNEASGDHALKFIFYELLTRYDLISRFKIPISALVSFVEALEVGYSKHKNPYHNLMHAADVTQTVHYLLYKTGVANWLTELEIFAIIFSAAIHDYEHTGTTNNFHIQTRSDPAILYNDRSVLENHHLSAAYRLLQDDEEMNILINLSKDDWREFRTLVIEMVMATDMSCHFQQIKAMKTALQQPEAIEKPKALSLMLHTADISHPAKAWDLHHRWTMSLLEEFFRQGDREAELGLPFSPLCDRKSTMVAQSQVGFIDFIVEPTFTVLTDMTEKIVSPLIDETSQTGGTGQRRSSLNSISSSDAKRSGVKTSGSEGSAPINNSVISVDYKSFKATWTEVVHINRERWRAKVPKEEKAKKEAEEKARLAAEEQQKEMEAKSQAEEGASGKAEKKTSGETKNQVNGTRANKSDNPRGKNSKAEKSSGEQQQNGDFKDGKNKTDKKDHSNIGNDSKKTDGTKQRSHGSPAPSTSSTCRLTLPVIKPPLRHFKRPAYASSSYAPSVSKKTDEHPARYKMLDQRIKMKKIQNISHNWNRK
Procedure: as §1

PDE1A, sequence (P54750 whole entry): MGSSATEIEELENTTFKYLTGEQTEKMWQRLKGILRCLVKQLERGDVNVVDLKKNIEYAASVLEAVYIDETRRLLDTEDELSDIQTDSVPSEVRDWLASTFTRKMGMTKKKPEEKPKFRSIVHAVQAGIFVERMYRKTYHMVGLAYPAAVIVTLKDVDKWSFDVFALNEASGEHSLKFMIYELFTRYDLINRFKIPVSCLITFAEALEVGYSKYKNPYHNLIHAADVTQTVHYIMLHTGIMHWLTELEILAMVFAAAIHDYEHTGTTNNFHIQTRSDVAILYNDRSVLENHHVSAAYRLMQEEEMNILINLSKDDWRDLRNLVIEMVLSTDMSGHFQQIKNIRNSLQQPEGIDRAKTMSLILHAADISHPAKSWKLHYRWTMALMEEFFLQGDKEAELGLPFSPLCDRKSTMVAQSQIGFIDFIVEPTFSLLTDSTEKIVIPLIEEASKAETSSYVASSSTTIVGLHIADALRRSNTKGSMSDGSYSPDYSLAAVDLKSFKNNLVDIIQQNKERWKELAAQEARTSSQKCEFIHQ

Row | SMILES | IC50 (PDE1A) | IC50 (PDE1B) | IC50 (PDE1C)
1 | COc1ccc2c(NC3(C)CCOC3)ncnc2c1F (single isomer, unassigned) [1 Stereoisomer 1] | 50 nM | 9.9 nM | 28 nM
2 | COc1ccc2c(NC3(C)CCOC3)ncnc2c1F (single isomer, unassigned) [1 Stereoisomer 2] | 250 nM | 65 nM | 260 nM
3 | COc1ccc2c(N(C)C3CCOC3)ncnc2c1F (single isomer, unassigned) [2 Stereoisomer 1] | 1100 nM | 300 nM | 1300 nM
4 | COc1ccc2c(N(C)C3CCOC3)ncnc2c1F (single isomer, unassigned) [2 Stereoisomer 2] | 100 nM | 18 nM | 76 nM
5 | COc1ccc2c(NC3CCOC3C)ncnc2c1F (single isomer, unassigned) [3 Stereoisomer 1] | 1900 nM | 650 nM | 1800 nM
6 | COc1ccc2c(NC3CCOC3C)ncnc2c1F (single isomer, unassigned) [3 Stereoisomer 2] | 420 nM | 87 nM | 260 nM
7 | COc1ccc2c(NC3CCOC3C)ncnc2c1F (single isomer, unassigned) [3 Stereoisomer 3] | 530 nM | 70 nM | 310 nM
8 | COc1ccc2c(NC3CCOC3C)ncnc2c1F (single isomer, unassigned) [3 Stereoisomer 4] | 600 nM | 120 nM | 410 nM
9 | COc1ccc2c(NC3CCOC3)ncnc2c1Cl (single isomer, unassigned) [4 Stereoisomer 1] | 790 nM | 310 nM | 200 nM
10 | COc1ccc2c(NC3CCOC3)ncnc2c1Cl (single isomer, unassigned) [4 Stereoisomer 2] | 190 nM | 45 nM | 33 nM
11 | COc1ccc2c(NC3CCOC3C)ncnc2c1Cl (single isomer, unassigned) [5 stereoisomer 1] | 300 nM | 49 nM | 27 nM
12 | COc1ccc2c(NC3CCOC3C)ncnc2c1Cl (single isomer, unassigned) [5 stereoisomer 2] | 230 nM | 37 nM | 35 nM
13 | COc1ccc2c(NC3CCOC3C)ncnc2c1Cl (single isomer, unassigned) [5 stereoisomer 3] | 1500 nM | 460 nM | 250 nM
14 | COc1ccc2c(NC3CCOC3C)ncnc2c1Cl (single isomer, unassigned) [5 stereoisomer 4] | 450 nM | 58 nM | 36 nM
15 | COc1ccc2c(N(C)C3CCOC3)ncnc2c1Cl (single isomer, unassigned) [6 stereoisomer 1] | 1800 nM | 330 nM | 140 nM
16 | COc1ccc2c(N(C)C3CCOC3)ncnc2c1Cl (single isomer, unassigned) [6 stereoisomer 2] | 150 nM | 15 nM | 11 nM
17 | COc1ccc2c(NC3(C)CCOC3)ncnc2c1Cl (single isomer, unassigned) [7 stereoisomer 1] | 200 nM | 23 nM | 11 nM
18 | COc1ccc2c(NC3(C)CCOC3)ncnc2c1Cl (single isomer, unassigned) [7 stereoisomer 2] | 490 nM | 75 nM | 48 nM
19 | COc1ccc2c(N3CC[C@@H]4OCCC43)ncnc2c1F (single isomer, unassigned) [8 Stereoisomer 1] | 72 nM | 21 nM | 60 nM
20 | COc1ccc2c(N3CC[C@@H]4OCCC43)ncnc2c1F (single isomer, unassigned) [8 Stereoisomer 2] | 4030 nM | 2200 nM | 2500 nM
21 | COc1ccc2c(N3CC[C@@H]4OCCC43)ncnc2c1Cl (single isomer, unassigned) [9 Stereoisomer 1] | 156 nM | 40 nM | 23 nM
22 | COc1ccc2c(N3CC[C@@H]4OCCC43)ncnc2c1Cl (single isomer, unassigned) [9 Stereoisomer 2] | 2260 nM | 1200 nM | 550 nM
23 | COc1ccc2c(N3CC[C@@H]4OCCC43)ncnc2c1Br (single isomer, unassigned) [10 Stereoisomer 1] | 147 nM | 49 nM | 11 nM
24 | COc1ccc2c(N3CC[C@@H]4OCCC43)ncnc2c1Br (single isomer, unassigned) [10 Stereoisomer 2] |  |  | 210 nM
25 | COc1ccc2c(N(C)C3(C)CCOC3)ncnc2c1Cl (single isomer, unassigned) [11 Stereoisomer 1] | 292 nM | 65 nM | 33 nM

Row | SMILES | IC50 (PDE1A) | IC50 (PDE1B) | IC50 (PDE1C)
26 | COc1ccc2c(N(C)C3(C)CCOC3)ncnc2c1Cl (single isomer, unassigned) [11 Stereoisomer 2] | 152 nM | 31 nM | 15 nM
27 | COc1ccc2c(NC3(C)CCOC3C)ncnc2c1Cl (single isomer, unassigned) [12 Stereoisomer 1] | 853 nM | 200 nM | 130 nM
28 | COc1ccc2c(NC3(C)CCOC3C)ncnc2c1Cl (single isomer, unassigned) [12 Stereoisomer 2] | 286 nM | 65 nM | 38 nM
29 | COc1ccc2c(NC3(C)CCOC3C)ncnc2c1Cl (single isomer, unassigned) [12 Stereoisomer 3] | 145 nM | 21 nM | 14 nM
30 | COc1ccc2c(NC3(C)CCOC3C)ncnc2c1Cl (single isomer, unassigned) [12 Stereoisomer 4] | 76 nM | 7 nM | 4 nM
31 | COc1ccc2c(N(C)C3(C)CCOC3C)ncnc2c1Cl (single isomer, unassigned) [13 Stereoisomer 1] | 2550 nM | 410 nM | 200 nM
32 | COc1ccc2c(N(C)C3(C)CCOC3C)ncnc2c1Cl (single isomer, unassigned) [13 Stereoisomer 2] | 207 nM | 34 nM | 17 nM
33 | COc1ccc2c(N(C)C3(C)CCOC3C)ncnc2c1Cl (single isomer, unassigned) [13 Stereoisomer 3] | 85 nM | 7 nM | 5 nM
34 | COc1ccc2c(N(C)C3(C)CCOC3C)ncnc2c1Cl (single isomer, unassigned) [13 Stereoisomer 4] | 300 nM | 26 nM | 13 nM
35 | COc1ccc2c(N(C)C3CCOC3C)ncnc2c1Cl (single isomer, unassigned) [14 Stereoisomer 1] | 2640 nM | 510 nM | 200 nM
36 | COc1ccc2c(N(C)C3CCOC3C)ncnc2c1Cl (single isomer, unassigned) [14 Stereoisomer 2] | 170 nM | 18 nM | 10 nM
37 | COc1ccc2c(N(C)C3CCOC3C)ncnc2c1Cl (single isomer, unassigned) [14 Stereoisomer 3] | 1530 nM | 490 nM | 200 nM
38 | COc1ccc2c(N(C)C3CCOC3C)ncnc2c1Cl (single isomer, unassigned) [14 Stereoisomer 4] | 285 nM | 30 nM | 14 nM
39 | COc1ccc2c(N(C)C3(C)CCOC3)ncnc2c1F (single isomer, unassigned) [15 Stereoisomer 1] | 688 nM | 110 nM | 320 nM
40 | COc1ccc2c(N(C)C3(C)CCOC3)ncnc2c1F (single isomer, unassigned) [15 Stereoisomer 2] | 333 nM | 47 nM | 81 nM
41 | COc1ccc2c(NC3CCOC3)ncnc2c1F (single isomer, unassigned) [16 Stereoisomer 1] | 1180 nM | 430 nM | 1200 nM
42 | COc1ccc2c(NC3CCOC3)ncnc2c1F (single isomer, unassigned) [16 Stereoisomer 2] | 315 nM | 81 nM | 230 nM
43 | COc1ccc2c(NC3(C)CCOC3C)ncnc2c1F (single isomer, unassigned) [17 Stereoisomer 1] | 184 nM | 27 nM | 98 nM
44 | COc1ccc2c(NC3(C)CCOC3C)ncnc2c1F (single isomer, unassigned) [17 Stereoisomer 2] | 73 nM | 5 nM | 22 nM
45 | COc1ccc2c(NC3(C)CCOC3C)ncnc2c1F (single isomer, unassigned) [17 Stereoisomer 3] | 451 nM | 100 nM | 390 nM
46 | COc1ccc2c(NC3(C)CCOC3C)ncnc2c1F (single isomer, unassigned) [17 Stereoisomer 4] | 408 nM | 140 nM | 440 nM
47 | COc1ccc2c(N(C)C3CCOC3C)ncnc2c1F (single isomer, unassigned) [18 Stereoisomer 1] | 1730 nM | 510 nM | 1100 nM
48 | COc1ccc2c(N(C)C3CCOC3C)ncnc2c1F (single isomer, unassigned) [18 Stereoisomer 2] | 2470 nM | 550 nM | 1400 nM
49 | COc1ccc2c(N(C)C3CCOC3C)ncnc2c1F (single isomer, unassigned) [18 Stereoisomer 3] | 200 nM | 47 nM | 87 nM
